The test system of one series is Salmonellae. The following applies: result in words; cited from earlier work.
The next series relates to laboratory animals. The settings on record: result in words; cited from earlier work.
Another series relates to rats. The following applies: liver, large intestine, small intestine and gland of external acoustic meatus; cited from earlier work.
The subject of series [1] is lipid of rat liver microsome. The series is described as follows: Inhibition activity against hyperoxidation of lipid of rat liver microsome. The series is classed as biochemical, male Sprague Dawley (SD) rats. The following applies: for antioxidant activity (conclusion from Table 2): result in words; for antioxidant activity: general statement in words, no test named at the place. As for the experimental part:
[Inhibition activity against hyperoxidation of lipid of rat liver microsome ] (1) Preparation of rat liver microsome suspension, A plurality of male Sprague Dawley (SD) rats (weighing […]) were prepared. Each rat was anesthetized with pentobarbital, and then subjected to celiotomy. A cannula was introduced into the portal vein of each rat, the abdominal large veins were sectioned, and 500 ml of cold 0.9% NaCl was injected into the portal veins. Livers were extracted from individual rats, and the livers were cut to pieces in 1.15% KCl and homogenized with ice cooling. Then, 1.15% KCl was further added to obtain a 30% liver homogenized solution. The above homogenized solution was centrifugally separated at 8,000 g (g: gravitation acceleration) for 10 minutes, and the resultant supernatant was recovered. […] The so-prepared suspension was stored at -20° C. before a test described in the following (2), and it was used within 1 week after the preparation. (2) Test on inhibition activity against hyperoxidation of lipid As test compounds, the hydroquinone (HQ) derivatives obtained in Preparation Examples 1 to 12, a known hydroquinone derivative which was a compound of the formula (I) in which R^1 was methyl (hereinafter referred to as HQ1) and BHT were respectively tested on their inhibition activities against hyperoxidation of lipid in the following manner. First, 0.1 ml of the liver microsome suspension obtained in the above (1), 0.1 ml of reduced […] (NADPH) (final concentration 2 mM), 0.1 ml of adenosine 5'-diphosphate (ADP) (final concentration 10 mM) and 0.1 ml of a solution of one of the test compounds whose concentration was adjusted as shown in Table 2 with 10% dimethylformamide (DMF) were added to a tris-HCl buffer (167 mM KCl, 74 mM tris-HCE buffer (TRIS), pH 7.4), and the resultant mixture was warmed at 37° C. for 5 minutes. Then, 0.1 ml of FeCl3 (final concentration 0.1 mM) was added, and the mixture was warmed at 37° C. for 20 minutes. […] Then, 0.2 ml of 8.1% sodium dodecylsulfate (SDS), 1.5 ml of an acetic acid buffer (prepared by adjusting 20% acetic acid containing 0.27 mM HCl to pH 3.5 with 10N NaOH) and 1.5 ml of 0.8% thiobarbituric acid were added to the cooled reaction mixture, and the resultant mixture was warmed over a boiling water bath for 20 minutes. […] The mixture was vigorously stirred. The reaction mixture was centrifugally separated at 2,000 rpm for 10 minutes, and the resultant supernatant was measured for an absorbance at 532 nm to determine a thiobarbituric acid reaction amount. […] In Control, the solution of the test compound in 10% DMF was replaced with 0.1 ml of a 10% DMF solution, and the above procedures were repeated to determine a peroxidized lipid amount. In Blank, each of 0.1 ml of NDAPH, 0.1 ml of ADP and 0.1 ml of FeCl3 were replaced with 0.1 ml of water, the solution of the test compound in 10% DMF was replaced with 0.1 ml of a 10% DMF solution, and the above procedures were repeated to determine a peroxidized lipid amount. The inhibition ratio of the lipid peroxidation reaction was calculated on the basis of the following equation. Inhibition ratio (%)=[1-(OD1 -OD3)/(OD2 -OD3)]×100 OD1 : Absorbance when test compound is added. OD2 : Absorbance of Control OD3 : Absorbance of Blank
On the technique in general: Liver microsomes are a subcellular fraction often used to study metabolism.

Another series concerns mice. The experiment in a line: Acute toxicity test by simple oral administering. The format is in vivo, Female ICR mice. The settings on record: maximum dose 500 mg/kg, 14 days observation. An excerpt:
Female ICR mice of 8 weeks age were used to carry out an acute toxicity test by simple oral administering.

The nature of series [2]: DPPH elimination ability (active organic radical species elimination ability). The series is classed as biochemical. The following applies: FIG. 1; absorbance at 517 nm; 0.02 ml of 10^-2 M DMF solution added to 2 ml of 10^-4 M DPPH in ethanol; result in words. As for the experimental part:
[DPPH elimination ability]
The hydroquinone derivative obtained in Preparation Example 5 and BHT as test compounds were measured for the ability to eliminate DPPH (α,α-diphenyl-β-picrylhydrazyl) (active organic radical species elimination ability) in the following manner.
The test compounds were respectively dissolved in DMF to prepare DMF solutions having a test compound concentration of 10^-2 M.
Then, 0.02 ml each of the above DMF solutions were respectively added to 2 ml of an ethanol EtOH solution containing 10^-4 M of DPPH, and the resultant solutions were measured for absorbance (ODS) at 517 nm at predetermined time intervals. The DPPH elimination ability of each test compound was determined on the basis of these measurement results. In Control, the DMF solution of the test compound was replaced with DMF itself,
The elimination ability of each test compound was determined as a reduction ratio of ODS to the absorbance in Control.
On the technique in general: DPPH is a stable violet radical that fades when it is reduced.

Consider 14 molecules from patent USRE36139E, “Hydroquinone derivative” (Nippon Hypox Laboratories Incorporated, priority 1995, dated 1999).

SMILES strings stand for the structures.

Regarding `Cc1cccn2c1nc1ccc(N)nc12` [Glu-P-1, 2-amino-6-methyldipyrido[1,2-a:3',2'-d]imidazole], the mutagenic activity entry in the series with Salmonellae is on record as “high mutagenic activity to Salmonellae”. Further, the carcinogenic activity entry in the series on laboratory animals was “carcinogenic activity to laboratory animals”. In addition, the incidence of cancer result in the series with rats is listed as “high rate of incidence of cancer”.

On to `COc1ccc(O)cc1` [HQ1, reference compound], for which the “Inhibition ratio of lipid peroxidation” value in series [1] (10^-5 M test compound, 10 µM) is 37.8%.

With `CCCCCCCCOc1ccc(O)cc1` [Preparation Example 1], the “Inhibition ratio of lipid peroxidation” value is 99.7% in series [1] (10^-5 M test compound, 10 µM) and 9.8% in series [1] (10^-6 M test compound, 1 µM). In addition, the “antioxidant activity (conclusion from Table 2)” value in series [1] is recorded as “excellent antioxidant activity over the known hydroquinone derivative HQ1”. Also, the mortality result in the series on mice was “No mice were found to die”.

With `CCCCCCCCCCOc1ccc(O)cc1` [Preparation Example 2], the “Inhibition ratio of lipid peroxidation” value in series [1] (10^-5 M test compound, 10 µM) is given as 79.5%; in series [1] (10^-6 M test compound, 1 µM), 1.8%. Further, the “antioxidant activity (conclusion from Table 2)” value in series [1] is listed as “excellent antioxidant activity over the known hydroquinone derivative HQ1”.

As to `CCCCOc1cc(C)c(O)c(C)c1C` [Preparation Example 3, 1-butyl-2,3,5-trimethylhydroquinone], the “Inhibition ratio of lipid peroxidation” value in series [1] (10^-6 M test compound, 1 µM) is on record as 75.9%.

Regarding `CCCCCCOc1cc(C)c(O)c(C)c1C` [Preparation Example 4], the “Inhibition ratio of lipid peroxidation” value worked out at 100.0% in series [1] (10^-5 M test compound, 10 µM) and 98.9% in series [1] (10^-6 M test compound, 1 µM).

As to `CCCCCCCCOc1cc(C)c(O)c(C)c1C` [Preparation Example 5], the “Inhibition ratio of lipid peroxidation” value in series [1] (10^-5 M test compound, 10 µM) came out at 100.0%; in series [1] (10^-6 M test compound, 1 µM) it was 74.8%. For the same molecule, the DPPH elimination ability result in series [2] is “excellent DPPH elimination ability over BHT”.

As for `CCCCCCCCCCOc1cc(C)c(O)c(C)c1C` [Preparation Example 6], the “Inhibition ratio of lipid peroxidation” value is 99.9% in series [1] (10^-5 M test compound, 10 µM) and 38.3% in series [1] (10^-6 M test compound, 1 µM).

As for `CCCCCCCCCCCCOc1cc(C)c(O)c(C)c1C` [Preparation Example 7], the “Inhibition ratio of lipid peroxidation” value is on record as 63.9% in series [1] (10^-5 M test compound, 10 µM) and 30.8% in series [1] (10^-6 M test compound, 1 µM).

In the case of `CCCCCCOc1c(C)cc(O)c(C)c1C` [Preparation Example 8], the “Inhibition ratio of lipid peroxidation” value in series [1] (10^-5 M test compound, 10 µM) amounted to 98.3%; in series [1] (10^-6 M test compound, 1 µM), 40%.

Take `CCCCOc1ccc(O)cc1` [Preparation Example 9, 1-butylhydroquinone]: the “Inhibition ratio of lipid peroxidation” value in series [1] (10^-5 M test compound, 10 µM) is 86.1%; in series [1] (10^-6 M test compound, 1 µM), 10.8%. For the same molecule, the antioxidant activity entry in series [1] was “excellent antioxidant activity”.

As for `CCCCCCOc1ccc(O)cc1` [Preparation Example 10], the “Inhibition ratio of lipid peroxidation” value was determined as 99.1% in series [1] (10^-5 M test compound, 10 µM) and 8.8% in series [1] (10^-6 M test compound, 1 µM). Also, in series [1], the antioxidant activity entry is “excellent antioxidant activity”.

On to `CCCCCCCCCCCCOc1ccc(O)cc1` [Preparation Example 11, 1-dodecylhydroquinone], for which the “Inhibition ratio of lipid peroxidation” value is 73.4% in series [1] (10^-5 M test compound, 10 µM) and 6.3% in series [1] (10^-6 M test compound, 1 µM). Besides, the antioxidant activity result in series [1] was “excellent antioxidant activity”.

For the molecule `CCOc1cc(C)c(O)c(C)c1C` [Preparation Example 12, 1-ethyl-2,3,5-trimethylhydroquinone], the “Inhibition ratio of lipid peroxidation” value in series [1] (10^-5 M test compound, 10 µM) is 87.2%. Further, the mortality result with mice was “No mice were found to die”.
